How the values were obtained:
Type in all cases: cell-based
[1] = tested on: Ross-River E2-E1 pseudotyped retrovirus
[2] = tested on: VSV-G pseudotyped retrovirus
wild type MMLV = tested on: wild type MMLV

Compound | inhibition of transduction by Ross River glycoprotein-pseudotyped viruses [1] | inhibition of VSV-G pseudotyped retrovirus entry [2] | effect on wild type MMLV entry (wild type MMLV)
Cl.N [ammonium chloride] | dramatic inhibition | inhibit | –
CCN(CC)CCCC(C)Nc1ccnc2cc(Cl)ccc12 (centres unmarked) [chloroquine] | dramatic inhibition | inhibit | only partially affects

Source: patent US7033595B1, “Pseudotyped retroviruses and stable cell lines for their production” (priority 1998, dated 2006)
